Reference: US20250066371A1, “FLUOROALKOXYALKYLENE-DIHYDROIMIDAZO[5,1-D]TETRAZINONE COMPOUNDS AND RELATED COMPOUNDS AND THEIR USE IN TREATING MEDICAL CONDITIONS” (priority 2023, published 2025)
Like-named read-outs stand apart in the source and are kept apart here.

Legend:
Assay type in all cases: cell-based
[1] = tested on: LN229 gliobastoma cells MGMT−/MMR−; experiment: Anti-cancer assay, isogenic LN229 cells, nuclei count (Examples 43, 46); settings: Homo sapiens, LN-229; MGMT negative/MMR negative; Example 46, maximum concentration 200 μM; read-out: IC50 for causing the death of LN229 cells
[2] = tested on: LN229 gliobastoma cells MGMT−/MMR+; experiment: as above; settings: Homo sapiens, LN-229; MGMT negative/MMR positive; Example 46, maximum concentration 200 μM; read-out: IC50 for causing the death of LN229 cells
[3] = tested on: LN229 gliobastoma cells MGMT−/MMR+; experiment: as above; settings: Homo sapiens, LN-229; LN229 MGMT−/MMR+; 120 hours; read-out: MGMT− MMR+ Activity
Source text: (§1) Cytotoxicity of the compounds may be measured in short-term cell viability assays against four isogenic LN229 glioblastoma cell lines engineered to be proficient or deficient in MGMT and/or MMR activity by using short hairpin RNAs (shRNAs) targeting MSH2. This approach allows for determination of the relationship between MGMT status, MMR status, and compound activity. LN229 cells are maintained in Dulbecco's Modified Eagle Medium (DMEM) supplemented with 10% fetal bovine serum, 1% Penicillin/Streptomycin, and 0.1% Fungin. DAY 0: Cells are plated into sterile 96-well plates (Corning Costar 96-well) at a concentration of 500 cells/well using a Multichannel pipettor. Then, assay plates are incubated overnight in a 37° C. 5% CO2 incubator. DAY 1: Compounds are prepared as 50 mM stocks in dimethyl sulfoxide (DMSO) and stored protected from light at room temperature (RT) until use. Prior to compound addition, a two-fold serial dilution of compound stock solutions is performed in DMSO from 30 mM to 0.117 mM in a 96-well Master plate. Vehicle control wells contain DMSO. 97 μL of media is added to each well of a new 96-well plate (Daughter plate) and 3 μL of drug solution from Master plate is added to corresponding wells in the Daughter plate resulting in a 3× plate. Three replicate dilution curves of each compound are run on each assay plate. The final concentration of compounds ranges from 300 μM to 1.171 μM (9-point, 2-fold dilution dose response curve), and the final DMSO concentration is 1%.
(§2) Assay plates are incubated for 120 hours at 37° C. in a humidified 5% CO2 incubator. DAY 5: Following incubation, cells are fixed with 4% paraformaldehyde and stained with Hoechst dye for nuclei visualization. Fixation, staining and washing is performed by using a Thermo Scientific Multidrop Combi. Images are acquired on a BioTek Cytation 5 Cell Imaging Multimode Reader and quantified using Cell Profiler image analysis software. Raw cell count data for test compounds are normalized to percent viability relative to the DMSO vehicle control.
(§3) Isogenic LN229 gliobastoma cells were maintained in Dulbecco's Modified Eagle Medium (DMEM) supplemented with 10% fetal bovine serum, 1% Penicillin/Streptomycin, and 0.1% Fungin. DAY 0: Cells were plated into sterile 96-well plates (Corning Costar 96-well) at a concentration of 500 cells/well using a Multichannel pipettor. Then, assay plates were incubated overnight in a 37° C. 5% CO2 incubator. DAY 1: Compounds were prepared as 50 mM stocks in dimethyl sulfoxide (DMSO) and stored protected from light at room temperature (RT) until use. Prior to compound addition, a two-fold serial dilution of compound stock solutions was performed in DMSO from 30 mM to 0.117 mM in a 96-well Master plate. Vehicle control wells contained DMSO. 97 μL of media was added to each well of a new 96-well plate (Daughter plate) and 3 μL of drug solution from Master plate was added to corresponding wells in the Daughter plate resulting in a 3× plate. Three replicate dilution curves of each compound were run on each assay plate. The final concentration of compounds ranged from 300 μM to 1.171 μM (9-point, 2-fold dilution dose response curve), and the final DMSO concentration was 1%.
as §2, with “plates were” for “plates are”, “cells were” for “cells are”, “washing was” for “washing is”, “Images were” for “Images are”, “compounds were” for “compounds are”, “control. […]” for “control.”

[4] = tested on: LN229 gliobastoma cells MGMT−/MMR−; experiment: as above; settings: Homo sapiens, LN-229; LN229 MGMT−/MMR−; 120 hours; read-out: MGMT− MMR− Activity
Source text: as §1, §2, §3
as §2, with “plates were” for “plates are”, “cells were” for “cells are”, “washing was” for “washing is”, “Images were” for “Images are”, “compounds were” for “compounds are”, “control. […]” for “control.”

[5] = tested on: LN229 gliobastoma cells MGMT+/MMR−; experiment: Anti-cancer assay, isogenic LN229 cells, nuclei count (Example 43); settings: Homo sapiens, LN-229; LN229 MGMT+/MMR−; 120 hours; read-out: MGMT+ MMR− Activity
Source text: as §1, §2, §3
as §2, with “plates were” for “plates are”, “cells were” for “cells are”, “washing was” for “washing is”, “Images were” for “Images are”, “compounds were” for “compounds are”

[6] = tested on: 885 barcoded cancer cell lines; experiment: PRISM multiplexed cell-viability assay (Example 45); settings: 5-day treatment; for Log 2 fold change in abundance of the cells: 66.7 μM
Source text: The multiplexed cell-viability platform, PRISM (profiling relative inhibition simultaneously in mixtures), enabled multiplexed screening of Compound I-1 across 900 barcoded cell lines representing more than 45 lineages. Details of the assay technique are described in Yu, C., et al. “High-throughput identification of genotype-specific cancer vulnerabilities in mixtures of barcoded tumor cell lines,” Nat. Biotechnol. 2016, Vol. 34, p. 419-423; and Corsello, S. M., et al. “Discovering the anti-cancer potential of non-oncology drugs by systematic viability profiling,” Nat. Cancer, 2020, Vol. 1, p. 235-248; each of which are hereby incorporated by reference in their entirety.
Briefly, unique oligonucleotide barcodes are stably transduced into individual cancer cell lines. Following barcode transduction, individual cell lines are pooled together in groups of 20-25 based on growth rate similarity, then thawed into 384-well assay-ready plates, and treated with test compound. After 5 days of incubation, isolated mRNA is used to quantify transcribed barcode abundance of each individual cancer cell line to calculate relative viability (Log 2 fold change, “LFC”).
Compound I-1 was screened in the PRISM assay at 8-point dose (3-fold dilution) with a 5-day treatment with 885 cancer cell lines passing QC. Two PRISM cell line collections were used in the assay: PR500 (including only adherent cell lines) and PR300+(including adherent and suspension cell lines). Benchmark compounds (included in the validation compounds) were also tested at doses to ensure high data quality. All compounds were run in triplicate, and each plate contained positive (Bortezomib, 20 μM) and negative (DMSO) controls.

SMILES: NC(=O)c1ncn2c(=O)n(CCOC(F)(F)F)nnc12 [Compound I-1, 4-Oxo-3-(2-(trifluoromethoxy)ethyl)-3,4-dihydroimidazo[5,1-d][1,2,3,5]tetrazine-8-carboxamide]
- IC50 [1]: < 20 µM
- IC50 [2]: < 20 µM
- IC50 [3]: < 20 µM
- IC50 [4]: < 20 µM
- IC50 [5]: > 100 µM
- Log 2 fold change in abundance of the cells ([6]; cell lines of Table 8): −3.5 to −2.0
- Log 2 fold change in abundance of the cells ([6]; cell lines of Table 9): −2.0 to −1.0
- Log 2 fold change in abundance of the cells ([6]; cell lines of Table 10): −1.0 to −0.5
- Log 2 fold change in abundance of the cells ([6]; cell lines of Table 11): −0.5 to −0.001
- anti-cancer effect ([6]; cell lines of Table 12): did not appear to provide an anti-cancer effect
